The structures appear in SMILES notation.

What is called IC50 is the midpoint of a concentration-inhibition curve.

The experiment addresses T1, human TRPC6 (Homo sapiens, UniProt Q9Y210).
T1 construct: expressed in transfected cells
T1 sequence (Q9Y210 1-931): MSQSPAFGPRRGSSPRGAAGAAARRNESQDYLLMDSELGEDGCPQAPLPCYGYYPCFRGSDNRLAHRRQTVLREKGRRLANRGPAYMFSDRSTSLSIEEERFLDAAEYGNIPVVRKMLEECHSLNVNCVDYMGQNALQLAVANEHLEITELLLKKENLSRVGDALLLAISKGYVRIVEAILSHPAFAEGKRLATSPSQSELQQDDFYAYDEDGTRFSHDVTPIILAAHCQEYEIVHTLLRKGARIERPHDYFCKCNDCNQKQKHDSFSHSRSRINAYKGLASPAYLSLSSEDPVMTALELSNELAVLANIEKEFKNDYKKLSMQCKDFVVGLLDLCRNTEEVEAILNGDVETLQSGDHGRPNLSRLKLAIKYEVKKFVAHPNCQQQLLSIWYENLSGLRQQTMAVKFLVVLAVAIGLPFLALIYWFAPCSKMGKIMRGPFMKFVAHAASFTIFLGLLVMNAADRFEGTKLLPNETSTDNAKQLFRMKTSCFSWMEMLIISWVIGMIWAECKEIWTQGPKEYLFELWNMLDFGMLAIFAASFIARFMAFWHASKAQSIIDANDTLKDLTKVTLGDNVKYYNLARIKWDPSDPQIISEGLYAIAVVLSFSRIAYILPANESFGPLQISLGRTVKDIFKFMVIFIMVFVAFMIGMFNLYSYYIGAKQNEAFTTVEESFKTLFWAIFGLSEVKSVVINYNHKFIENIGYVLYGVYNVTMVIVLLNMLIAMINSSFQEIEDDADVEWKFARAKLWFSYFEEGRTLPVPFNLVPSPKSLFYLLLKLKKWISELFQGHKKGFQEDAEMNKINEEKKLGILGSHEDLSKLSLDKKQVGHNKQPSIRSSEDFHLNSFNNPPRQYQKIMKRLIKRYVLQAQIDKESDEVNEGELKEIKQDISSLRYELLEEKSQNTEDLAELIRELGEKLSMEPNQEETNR
The experiment in a line: High throughput screening assay: Fluo4/AM calcium fluorescence in HEK293/TREx cells expressing human TRPC6, agonist GSK1702934A (single concentration 10 μM and IC50 curves). In kind it is cell-based. Conditions: antagonist effect against human TRPC6, 7 concentrations 20 μM to 0.027 μM, triplicate. The text has this: High Throughput Screening Assay
This screening assay measures human TRPC6 (transient receptor potential cation channel, subfamily C, member 6) ion channel activation via addition either of the commercially available DAG ligand analogue OAG (1-oleoyl-2-acetyl-sn-glycerol) or of the TRPC6 agonist 1-[1-(4,5,6,7,8-pentahydrocyclohepta[2,1-d]thiophen-2-ylcarbonyl)-4-piperidyl]-3-hydrobenzimidazol-2-one (GSK1702934A). The assay utilizes a fluorescent calcium sensor 4-(6-Acetoxymethoxy-2,7-difluoro-3-oxo-9-xanthenyl)-4′-methyl-2,2′-(ethylenedioxy)dianiline-N,N,N′,N′-tetraacetic acid tetrakis(acetoxymethyl) ester (Fluo4/AM) dye from Molecular Devices. Changes (increases) in intracellular calcium concentration as measured by the fluorescent signal increase provide a measurement of channel activity.
The commercially available HEK293/TREx line (Invitrogen) was stably transfected with a human TRPC6 construct and screened by conventional calcium imaging to find clones with human TRPC6 expression following stimulation with 1 μg/ml tetracycline. These cells were maintained in the growth medium recommended by the manufacturer supplemented with 100 μg/ml hygromycin to promote retention of the human TRPC6 construct. After growing to near confluency, cells were plated at a density of ^˜35,000 cells/well in 384 well CellBind plates (Corning) in the presence of 1 μg/ml tetracycline, and allowed to grow for 20-30 hrs. A nearly confluent monolayer resulted. Growth media was removed from the wells and cells were then loaded with […] Fluo4/AM diluted in Ringer's Solution (6.5 g NaCl, 0.42 g KCl, 0.25 g CaCl2) and 0.2 g of sodium bicarbonate; pH 7.4) supplemented with 1% Pluronic F-127 to a final concentration of 0.5 μM and incubated for 60 min, at room temperature. Dye solution was then removed from the cells by inverting plates with a sharp flick, and replaced with 25 μl Ringer's. Following ^˜0.5 hour for recovery from loading, cells were assayed using the Hamamatsu FDSS 6000 system, which permitted illumination at 485 nm. Frames were acquired at a rate of 0.2 Hz. During the assay, the plates were continuously vortexed, with pipette mixing of wells following addition of each reagent. For the screening assay, 26 μl of a diluted compound stock (at 50 μM) was added to each well for 2 minutes following the collection of a short (4 frame) baseline. 13 μl of agonist solution consisting of 125 nM GSK1702934A diluted in high-Ca2+Ringer solution (containing 90 mM Ca2+) was then added to each well, achieving a final concentration of 20 mM Ca2+ and 10 μM test compound. Data was collected for ^˜3 minutes following addition of high Ca2+Ringer. The fluorescent intensity observed at a particular timepoint for each well was divided by the initial fluorescent intensity for that well and the overall response was determined by averaging the resulting fluorescent ratio of the last 4 frames acquired during the experiment excepting the final frame. Negative and Positive controls were included on each plate. Negative controls wells consisted of HEK293/TREx TRPC6 cells exposed to assay buffer and agonist solution, but no test compound. Positive control consisted of wells consisted of HEK293/TREx TRPC6 cells exposed to 25 μM 3-[(2-chlorophenoxy)methyl]phenyl piperidyl ketone (Chembridge) diluted in Ringer's solution and agonist solution. These controls defined zero percent and 100 percent block respectively, and intensity of each well was normalized to these values.
Compounds were tested in triplicate at all concentrations. Standard software was used to fit IC50 curves.
For `COc1cc(C(=O)N2CCC(c3ccc(N)nn3)CC2)ncc1-c1cnc(OC(C)C)nc1` [Compound 53, [4-(6-Amino-pyridazin-3-yl)-piperidin-1-yl]-[5-(2-isopropoxy-pyrimidin-5-yl)-4-methoxy-pyridin-2-yl]-methanone], the IC50 worked out at 3600 nM.
On to `COc1cc(C(=O)N2CCN(c3cnc(N)cc3OC)C[C@H]2CO)ncc1-c1ccc(C(F)(F)F)cc1` [Compound 101, [(S)-4-(6-Amino-4-methoxy-pyridin-3-yl)-2-hydroxymethyl-piperazin-1-yl]-[4-methoxy-5-(4-trifluoromethyl-phenyl)-pyridin-2-yl]-methanone], for which the IC50 came out at 390 nM.
`CC[C@@H](C)Oc1ccc(-c2ccc(C(=O)N3CCC(c4ccc(N)nn4)CC3)cc2OC)cn1` [Compound 74, [4-(6-Amino-pyridazin-3-yl)-piperidin-1-yl]-{4-[6-((R)-sec-butoxy)-pyridin-3-yl]-3-methoxy-phenyl}-methanone]: the IC50 was determined as 140 nM.
As for `COc1cc(C(=O)N2CCN(c3ccc(N)nc3)CC2)ncc1-c1ccccc1` [Compound 68, 5-[4-(4-Methoxy-5-phenylpyridine-2-carbonyl)piperazin-1-yl]pyridin-2-amine], the figure is 39 nM; as for `COc1cc(C(=O)N2CCN(c3cnc(N)cc3C)C[C@@H]2CO)ncc1-c1ccc(C(F)(F)F)cc1` [Compound 92, [(R)-4-(6-Amino-4-methyl-pyridin-3-yl)-2-hydroxymethyl-piperazin-1-yl]-[4-methoxy-5-(4-trifluoromethyl-phenyl)-pyridin-2-yl]-methanone], 56 nM.
As for `COc1cc(C(=O)N2CCN(c3cnc(N)cc3OC)CC2)ncc1-c1ccc(C(F)(F)F)cc1` [Compound 103, [4-(6-Amino-4-methoxy-pyridin-3-yl)-piperazin-1-yl]-[4-methoxy-5-(4-trifluoromethyl-phenyl)-pyridin-2-yl]-methanone], the figure is 27 nM; as for `COc1cc(C(=O)N2CCC(c3ccc(N)nn3)CC2)ncc1-c1ccc(C(F)(F)F)cc1Cl` [Compound 24, [4-(6-Amino-pyridazin-3-yl)-piperidin-1-yl]-[5-(2-chloro-4-trifluoromethyl-phenyl)-4-methoxy-pyridin-2-yl]-methanone], 420 nM; as for `COc1cc(C(=O)N2CCC(c3ccc(N)nn3)CC2)ccc1-c1ccc(O[C@H](C)C2CC2)nc1` [Compound 81, [4-(6-Amino-pyridazin-3-yl)-piperidin-1-yl]-{4-[6-((R)-1-cyclopropyl-ethoxy)-pyridin-3-yl]-3-methoxy-phenyl}-methanone], 220 nM.
In the case of `COc1cc(C(=O)N2CCC(c3ccc(N)nc3)CC2)ncc1-c1ccccc1` [Compound 71, 5-[1-(4-Methoxy-5-phenylpyridine-2-carbonyl)piperidin-4-yl]pyridin-2-amine], the IC50 came to 27 nM.
For `COc1cc(C(=O)N2CCC(c3ccc(N)nn3)CC2)ncc1-c1ccc(C(F)F)cc1` [Compound 38, [4-(6-Amino-pyridazin-3-yl)-piperidin-1-yl]-[5-(4-difluoromethyl-phenyl)-4-methoxy-pyridin-2-yl]-methanone] the value was 180 nM; for `COc1cc(C(=O)N2CCC(c3ccc(N)nn3)CC2)ncc1-c1ccc(OCC(F)(F)F)nc1` [Compound 47, [4-(6-Amino-pyridazin-3-yl)-piperidin-1-yl]-[4-methoxy-6′-(2,2,2-trifluoro-ethoxy)-[3,3′]bipyridinyl-6-yl]-methanone], 200 nM; for `COc1cc(C(=O)N2CCN(c3ccc(N)nc3)CC2)ncc1-c1ccc(C(F)(F)F)nc1` [Compound 67, [4-(6-Amino-pyridin-3-yl)-piperazin-1-yl]-(4-methoxy-6′-trifluoromethyl-[3,3′]bipyridinyl-6-yl)-methanone], 210 nM.
In the case of `COc1cc(C(=O)N2CCN(c3cnc(N)cc3OC)C[C@@H]2CO)ncc1-c1ccccc1` [Compound 96, [(R)-4-(6-Amino-4-methoxy-pyridin-3-yl)-2-hydroxymethyl-piperazin-1-yl]-(4-methoxy-5-phenyl-pyridin-2-yl)-methanone], the IC50 was determined as 320 nM.

Values taken from patent US11485740B2, “Inhibitors of TRPC6” (Boehringer Ingelheim International GmbH, priority 2018, dated 2022).
